Tests used:
[1] = system: genotype 2a (Jc1 chimera) HCVcc virus; experiment: HCV cell-culture (HCVcc) infection assay, Luc-Jc1 luciferase reporter in Huh7/Scr cells; format: cell-based; conditions: for EC50: Hepatitis C virus, Huh-7, 72 h, read-out: EC50 (antiviral activity, HCV infection); for SI (Selectivity Index): calculated from EC50 and CC50
Protocol: (§1) To assess the inhibitory effects of Neosoraphens on HCV infection, a HCV cell-culture (HCVcc) system^[1-3] was used. Unless otherwise stated, Huh7/Scr cells (provided by F. Chisari, The Scripps Research Institute, La Jolla, Calif.) which are highly permissive for HCV propagation in vitro were employed. The experiments were performed in the context of genotype 2a (Jc1 chimera^[4]) HCVcc virus. To facilitate the quantification of infection, the bicistronic Jc1 luciferase reporter construct, designated Luc-Jc1^[5], was used. The commercial ACC inhibitor 5-(Tetradecyloxy)-2-furoic acid (TOFA), which has been previously described to inhibit HCV replication^[6], was chosen for comparison of the antiviral activities of the Neosoraphens. The NS3-4A serine protease inhibitor VX-950^[7], a known HCV replication inhibitor, was used as positive control. Briefly, Huh7/Scr cells were seeded at a density of 1.2×10^4 cells/well in 96-well plates. One day later cells were pre-incubated for 1 h at 37° C. with the compounds and then inoculated with the virus and the compounds for 4 h at 37° C. Finally, virus-containing media was replaced by a fresh media-compounds mix. Firefly luciferase activities were assayed 72 h post infection with the Dual-Glo® Luciferase Assay System while cytotoxicity (viability) assays were carried out with the CytoTox-Glo™ Cytotoxicity Assay (both purchased from Promega Corporation, Madison, Wis.), according to manufacturer's instructions, using a plate luminometer FLUOstar OPTIMA (BMG LABTECH, Ortenberg, Germany). Mean relative light units (RLU) were plotted as percentage relative to control infections (solvent without compounds) for both infectivity and cell viability. Infections were carried out in triplicates and measured in duplicates (mean±SEM; n=6). Half maximal effective concentration (EC50) and half maximal cytotoxic concentration 50 (CC50) were estimated by non-linear regression of log inhibitor vs. normalized response and used to calculate the Selectivity Index (SI) value.

[2] = system: Naive mouse CD4+ T cells under Th17 conditions; experiment: Induction of Foxp3+ Treg differentiation in Th17 cultures (flow cytometry); format: cell-based; conditions: 4 days under Th17 conditions, varying concentrations, FIG. 1B
Protocol: (§2) Single cell suspensions were prepared and pooled from the spleen, mesenteric and peripheral lymph nodes of adult C57BL/6 mice by filtering the crushed organs through a 70 μm cell-strainer. Naïve CD4+CD25^−CD62L+ T cells were subsequently isolated from these suspensions using the CD4+CD25^−CD62L+ T cell isolation Kit II and AutoMACS according to the manufacturer's protocol (Miltenyi Biotec) or by FACS sorting. Purified T cells were cultured under classic Th17 inducing conditions (Bettelli et al., Nature 441(7090): 235-8 (2006)). In detail, the cells were cultured in 96 well flat bottom plates (3×10^5 cells per well), that were precoated with 10 μg/ml anti-CD3 Antibody (clone 145-2C11, BioXcell) in the presence of antibodies against CD28 (1 μg/ml, clone 37.51, BioXcell), IFN-γ (5 μg/ml, clone XMG1.2, BioXcell) and IL-4 (5 μg/ml, clone 11B11, BioXcell) as well as in the presence of TGFβ1 (2 ng/ml, R&D), IL-6 (5 ng/ml, R&D) and IL-1β (50 ng/ml, R&D) in IMDM Medium (supplemented with 10% FCS+500 U PenStrep+50 μM β-Mercaptoethanol). To these cultures, increasing concentrations of ACC Inhibitors Soraphen A or 5-(Tetradecyloxy)-2-furoic acid (TOFA) (both dissolved in DMSO) were added on day 0 and cultured for up to 4 days in an cell culture incubator (37° C. and 5% CO2). As control, cells were cultured in the presence of DMSO only.
(§3) Were indicated, cells from Th17 cultures were restimulated with 100 ng/ml phorbol 12-myristate 13-acetate (Sigma) and 1 μg/ml Inonomycin (Sigma) for 4 h and Brefeldin A (1:1000, Sigma) was added for the last 2 h of restimulation. After restimulation, cells were harvested for flow cytometry. For surface staining: fluorophore-labelled mAbs aginst CD3ε and CD4 were obtained from eBiosciences. For intracellular staining, cells were fixed with Fix/Perm (eBioscience) according to the manufacturer's protocol, and stained intracellular with fluorophore-labelled mAbs directed against IL-17A and Foxp3 (eBiosciences). Cells were run on a flow cytometer (CyAn, Beckman Coulter) and data was analysed on FlowJo (TreeStar) software.
(§4) To isolate naive CD4+CD25^−CD62L+ T cells by FACS-sorting, lymphocyte suspensions were surface-stained with fluorophore-labelled mAbs aginst CD4, CD25 and CD62L (all from ebioscience) and live CD4+CD25^−CD62L+ T cells were sorted to >98% purity using a Moflo (Beckman Coulter) or FACS ARIAII (BD Biosciences) cell sorter.
(§5) Naive mouse CD4^+ T cells were cultured for 4 days under Th17 conditions in the presence of varying concentrations of the compounds of the invention. As control, cells were cultured in the presence of DMSO only (negative control) or ACC inhibitor Soraphen A (positive control). After 4 days, cells were restimulated with PMA/Ionomycin for 4 h and Brefeldin A for 2 h and further analysed by flow cytometry.

[3] = system: Naive mouse CD4+ T cells under Th17 conditions; experiment: In vitro Th17 differentiation of naive CD4+ T cells (IL-17A+ cells by flow cytometry); format: cell-based; conditions: 4 days under Th17 conditions, FIG. 1A; for percentage of IL-17A producing T-cells (inhibition of Th17 differentiation): varying concentrations
Protocol: as §2, §3, §4, §5

[4] = CytoTox-Glo cytotoxicity (viability) assay; format: cell-based; conditions: human, Huh7/Scr cells, read-out: CC50 (half maximal cytotoxic concentration)
Protocol: as §1

[5] = system: rotavirus (RV); conditions: Gaunt et al., J Gen Virol 2013; cited from earlier work

| SMILES | EC50 [1] [nM] | SI (Selectivity Index) [1] | differentiation of Foxp3+ Treg cells [2] | percentage of IL-17A producing T-cells (inhibition of Th17 differentiation) [3] | CC50 at 72 h [4] [µM] | EC50 ([3]; read-out: EC50 for decrease of IL-17A producing T-cells) [nM] | reduction of infectivity of progeny rotavirus [5] [fold] | reduction of viral RNA production [5] [fold] |
| --- | --- | --- | --- | --- | --- | --- | --- | --- |
| COC1CCCCC(c2ccccc2)OC(=O)CC2(O)CC(O)C(C)C(O2)C(C)/C=C/C1O (stereo not shown) [Neosoraphen M462] | 7.74 | 1752 | induction of Treg differentiation | Inhibition of Th17 | 13.6 | – | – | – |
| COC1CCCCC(c2ccccc2)OC(=O)CC2(O)CC(O)C(C)C(O2)C(C)CCC1O (stereo not shown) [Neosoraphen M464] | 46 | 1136 | induction of Treg differentiation | Inhibition of Th17 | 52.2 | – | – | – |
| COC1/C=C/C(C)C2OC(O)(CC(=O)OC(c3ccccc3)CCCCC1OC)CC(O)C2C (stereo not shown) [Neosoraphen M476] | 2.09 | 95072 | induction of Treg differentiation | Inhibition of Th17 | 199 | – | – | – |
| COC1CCCCC(c2ccccc2)OC(=O)CC2(O)CC(O)C(C)C(O2)C(C)CCC1OC (stereo not shown) [Neosoraphen M478] | 1.52 | 64961 | induction of Treg differentiation | Inhibition of Th17 | 98.7 | – | – | – |
| COC1CCCCC(c2ccccc2)OC(=O)CC2(O)CC(O)C(C)C(O2)C(C)C(O)CC1O (stereo not shown) [Neosoraphen M480] | 65.7 | 693 | – | – | 45.5 | – | – | – |
| CO[C@H]1CCCC[C@@H](c2ccccc2)OC(=O)[C@@H](C)[C@@]2(O)O[C@H]([C@@H](C)[C@H](O)[C@H]2OC)[C@@H](C)/C=C/[C@H]1OC [Soraphen A, reference compound] | – | – | induces the reciprocal differentiation of Foxp3+ Treg cells | decreases the percentage of IL-17A producing T-cells in a dose dependent manner | – | 40 | – | – |
| CCCCCCCCCCCCCCOc1ccc(C(=O)O)o1 [TOFA, 5-(Tetradecyloxy)-2-furoic acid, reference compound] | 1010 | 34 | – | – | 33.9 | – | 31 | 6 |
| CCC[C@H](NC(=O)[C@@H]1[C@H]2CCC[C@H]2CN1C(=O)[C@@H](NC(=O)[C@@H](NC(=O)c1cnccn1)C1CCCCC1)C(C)(C)C)C(=O)C(=O)NC1CC1 [VX-950, reference compound] | 18.9 | 4995 | – | – | 94.5 | – | – | – |

— US20170029436A1, “NEOSORAPHENS” (Helmoltz-Zentrum für Infektionsforschung GmbH, priority 2014, published 2017)
